Experimental data published in the NIST ThermoML archive (doi:10.1016/j.fluid.2014.01.046).
Where “and” joins values, the source holds several entries; their conditions need not be identical. Equal values may be shown once. Numbers after ± are expanded uncertainties. Values belong to the compound of their own block, whether it stands above or below them.

How the values were obtained:
[1] = 298.15 K; 101.33 kPa; Liquid; Vibrating tube method
[2] = xn = mol fraction of the nth substance listed; conditions: 298.15 K, 101 kPa, Liquid, Vibrating tube method

- mass density [1]: 773.814 ± 2 kg/m3
SMILES: C1CCCCC1 [cyclohexane]

- mass density [1]: 943.827 ± 2 kg/m3
SMILES: CN(C)C=O [dimethylformamide]

- mass density ([2]; x1 = 0.0013): 773.912 ± 2 kg/m3
- mass density ([2]; x1 = 0.0032): 774.059 ± 2 kg/m3
- mass density ([2]; x1 = 0.00735): 774.39 ± 2 kg/m3
- mass density ([2]; x1 = 0.00767): 774.433 ± 2 kg/m3
- mass density ([2]; x1 = 0.0142): 774.963 ± 2 kg/m3
- mass density ([2]; x1 = 0.0191): 775.4 ± 2 kg/m3
- mass density ([2]; x1 = 0.0404): 777.361 ± 2 kg/m3
- mass density ([2]; x1 = 0.0554): 778.816 ± 2 kg/m3
- mass density ([2]; x1 = 0.8496): 906.747 ± 2 kg/m3
- mass density ([2]; x1 = 0.8504): 906.951 ± 2 kg/m3
- mass density ([2]; x1 = 0.8533): 907.513 ± 2 kg/m3
- mass density ([2]; x1 = 0.8999): 918.584 ± 2 kg/m3
- mass density ([2]; x1 = 0.9245): 924.576 ± 2 kg/m3
- mass density ([2]; x1 = 0.969): 935.786 ± 2 kg/m3
SMILES: CN(C)C=O [dimethylformamide] + C1CCCCC1
- mass density ([2]; x1 = 0.05): 778.28 ± 2 kg/m3 and 778.287 ± 2 kg/m3 and 778.289 ± 2 kg/m3

- mass density [1]: 785.106 ± 2 kg/m3
SMILES: CCO [ethanol]
